Measured values published in patent US7989165B2, “Tape stripping methods for analysis of skin disease and pathological skin state” (DermTech International, priority 2004, dated 2011).
Where “and” joins values, the source holds several entries; their conditions need not be identical. Equal entries are not always repeated. Marks after values point to notes of the source that are not given here.

Experiments:
Format in all cases: in vivo, human
GAPDH mRNA = assay: Semi-quantitative RT-PCR of GAPDH mRNA relative to β-actin in SLS-occluded skin (tape and biopsy); details: 1% SLS 24 h occluded skin, mean ± SD per subject, last line average, sulfate
Source text: Clinical protocols: The study protocols were reviewed and approved by an independent IRB (BioMed IRB, San Diego) and all subjects signed informed consent. Ten healthy women, ages 21-55 were enrolled in the study. Regions of unblemished, normal appearing skin on the mid back were chosen for the application of 2 occlusive patches in the form of bandages approximately 4 cm×6.5 cm. The bandages were made using a clear, non-porous plastic hypoallergenic adhesive tape. In the center of this tape was a Webril (non-woven cotton) patch measuring approximately 2 cm×4.5 cm. One Webril patch contained 0.6 ml of 1% aqueous sodium lauryl sulfate and the other contained 0.6 ml of sterile water as the vehicle control. […] The sites were scored by a trained technician using the scale provided below. […] In a second study, 3 subjects had 3 patches containing 1% SLS and 3 water patches applied to the mid back for 24 hours: Patches were removed, scored and tape stripped as above. […]
Quantitative RT-PCR: 10 μl of RNA was reverse transcribed (RT) into cDNA with the Sensiscript Reverse Transcriptase kit and random hexamers in a final volume of […] according to the manufacturer's directions. […]
(§1) Amplification and detection of specific mRNA: Specific mRNAs were converted to cDNA as described above. Specific cDNAs were semi-quantified using gene specific primer/probes (5′-nuclease assay) and fluorescence detection.

IL-8 mRNA = assay: Semi-quantitative RT-PCR of IL-8 mRNA relative to β-actin in SLS-occluded skin (tape and biopsy)
Source text: Clinical protocols: The study protocols were reviewed and approved by an independent IRB (BioMed IRB, San Diego) and all subjects signed informed consent. Ten healthy women, ages 21-55 were enrolled in the study. Regions of unblemished, normal appearing skin on the mid back were chosen for the application of 2 occlusive patches in the form of bandages approximately 4 cm×6.5 cm. The bandages were made using a clear, non-porous plastic hypoallergenic adhesive tape. In the center of this tape was a Webril (non-woven cotton) patch measuring approximately 2 cm×4.5 cm. One Webril patch contained 0.6 ml of 1% aqueous sodium lauryl sulfate and the other contained 0.6 ml of sterile water as the vehicle control. […] At 24 hours post application, the SLS and water patches were removed and the skin allowed to air dry for 15 minutes before scoring. The sites were scored by a trained technician using the scale provided below. Patched sites were large enough that two areas could be tape harvested without overlap and room left for a shave biopsy (˜2×2 mm). Skin sites were tape stripped with 4 tapes each and then a shave biopsy taken under local anesthetic (lidocaine HCl 1% and epinephrine 1:100,000; Abbott Laboratories). The tapes were applied to the skin using 20 seconds of firm pressure with a circular motion The tape used for tape stripping was a synthetic rubber-based adhesive on a polyurethane film (Product No. 90068, Adhesive Research, Glen Rock, Pa.). An area of uninvolved skin was tape harvested and shave biopsied in an identical manner. Tapes were stored in individual eppendorf tubes at −80 until extraction; biopsy samples were placed in buffer RLT and stored at −80 until extraction. Skin responses to each patch application were examined and graded under light supplied by a 100-watt incandescent blue bulb. The following grading scale was used: 0, no visible reaction; 1, slight, pink, patchy erythema; 2, mild confluent, pink erythema; 3, moderate erythema (definite redness) with edema; 4, strong erythema (very intense redness) with edema. In a second study, 3 subjects had 3 patches containing 1% SLS and 3 water patches applied to the mid back for 24 hours: Patches were removed, scored and tape stripped as above. In a third study, two individuals were tape stripped on uninvolved skin on the upper back at three adjacent sites as above. RNA harvested in these last two studies was used in the DNA microarray experiments described below.
Isolation of RNA: The RNA within skin cells adherent to the 4 tapes used to harvest a site was pooled by simultaneously extracting the tapes in a volume of buffer RLT (supplied with RNeasy kit). Extraction was performed using the manufacturer's directions and included a Proteinase K digestion, sonication of tapes and “on-column” DNase I digestion. RNA was eluted in 100 microliters of sterile, RNase free water. Extraction of biopsies was performed with the same kit according to the manufacturer's instructions.
Quantitative RT-PCR: 10 μl of RNA was reverse transcribed (RT) into cDNA with the Sensiscript Reverse Transcriptase kit and random hexamers in a final volume of […] according to the manufacturer's directions. The reaction was diluted 5-fold with sterile, nuclease-free water (Ambion) for use in the subsequent amplification/detection reaction. For each specific mRNA detection, 3 replicate RT^+ reactions and one RT^− (no reverse transcriptase; negative control) reaction were performed. Two amplification/detection reactions were done on each RT^+ reaction to yield a total of 6 independent determinations of the threshold value (Ct; discussed below).
as §1

[1] = system: gene expression levels in skin; assay: DNA microarray (Affymetrix HG-U133A GeneChip) of tape-harvested RNA, untreated vs water vs SLS-occluded skin; details: threshold p=0.003, PPDE(p) 0.99
Source text: Clinical protocols: The study protocols were reviewed and approved by an independent IRB (BioMed IRB, San Diego) and all subjects signed informed consent. Ten healthy women, ages 21-55 were enrolled in the study. Regions of unblemished, normal appearing skin on the mid back were chosen for the application of 2 occlusive patches in the form of bandages approximately 4 cm×6.5 cm. The bandages were made using a clear, non-porous plastic hypoallergenic adhesive tape. In the center of this tape was a Webril (non-woven cotton) patch measuring approximately 2 cm×4.5 cm. One Webril patch contained 0.6 ml of 1% aqueous sodium lauryl sulfate and the other contained 0.6 ml of sterile water as the vehicle control. […] At 24 hours post application, the SLS and water patches were removed and the skin allowed to air dry for 15 minutes before scoring. The sites were scored by a trained technician using the scale provided below. Patched sites were large enough that two areas could be tape harvested without overlap and room left for a shave biopsy (˜2×2 mm). Skin sites were tape stripped with 4 tapes each and then a shave biopsy taken under local anesthetic (lidocaine HCl 1% and epinephrine 1:100,000; Abbott Laboratories). […] In a second study, 3 subjects had 3 patches containing 1% SLS and 3 water patches applied to the mid back for 24 hours: Patches were removed, scored and tape stripped as above. […]

Krt-10 mRNA = assay: RT-PCR of keratin-10 mRNA relative to β-actin in SLS-irritated and control skin (tape and biopsy); design: key to ΔCt,Krt-10, Tape, SLS / ΔCt,Krt-10, Biopsy, SLS: ΔCt: keratin mRNA Ct normalized to β-actin Ct in same sample; details: sulfate; for ΔCt,Krt-10, Biopsy, SLS / ΔCt,Krt-10, Tape, SLS: 1% SLS occlusive patch 24 hours, mid-back, relative to β-actin, per subject 1-10 and Average; for ΔCt,Krt-10, Biopsy, SLS / Fold Increase Krt-10/β-actin mRNA vs. normal, Biopsy, SLS: biopsy RNA
Source text: The samples analyzed in this study are those described in the protocol performed by Wong et al. (Wong, Tran et al. 2004). […] Patches were removed and equivalent skin sites were biopsied and tape stripped as described in the Examples above. As an additional control, normal skin was also biopsied and tape stripped. Samples were processed for total RNA and assayed for keratin-10, keratin-16, keratin-17 and β-actin mRNA. The keratin mRNAs were normalized to β-actin mRNA in each sample. The semi-quantitative RT-PCR assay has been previously described (Wong, Tran et al. 2004).

[2] = SLS-occluded skin vs uninvolved skin

CCCCCCCCCCCCOS(=O)(=O)[O-].[Na+] [SLS, sodium lauryl sulfate]
ΔCt,GAPDH (Ct,GAPDH − Ct,actin), Biopsy (GAPDH mRNA; shave biopsy RNA): 1.44 ± 0.11 and 1.68 ± 0.09 and 1.78 ± 0.10 and 2.33 ± 0.07 and 1.73 ± 0.09 and 1.54 ± 0.10 and 3.25 ± 0.08 and 1.05 ± 0.07 and 1.61 ± 0.11 and 1.95 ± 0.08
ΔCt,GAPDH (Ct,GAPDH − Ct,actin), Tape (GAPDH mRNA; tape-harvested RNA): 3.02 ± 0.08 and 2.28 ± 0.10 and 3.15 ± 0.15 and 2.87 ± 0.10 and 2.68 ± 0.09 and 3 ± 0.11 and 2.85 ± 0.15 and 2.46 ± 0.08 and 2.78 ± 0.44 and 2.56 ± 0.11
fold-change in IL-8/β-actin mRNA ratio, Biopsy (IL-8 mRNA; SLS-occluded skin relative to uninvolved skin, biopsy samples, per subject, > = minimum estimate, sulfate): >171**^† fold and >12**^† fold and >101**^† fold and >778**^† fold and >42**^† fold and >594**^† fold and >368**^† fold and >1.1 fold (2×) and 84**^† fold
fold-change in IL-8/β-actin mRNA ratio, Tape (IL-8 mRNA; SLS-occluded skin relative to uninvolved skin, tape samples, per subject, > = minimum estimate, sulfate): 24**^† fold and >9.3**^† fold and >6.8** fold and >235**^† fold and >41**^† fold and 18** fold and >3** fold and 6**^† fold
biopsy samples with significant increases in IL-8/actin mRNA ratio (IL-8 mRNA; [2]): 8 of 10
tape-harvested samples with significantly increased IL-8/β-actin mRNA ratio (IL-8 mRNA; [2]): 8 of 10
ΔCt,IL-8, Biopsy (IL-8 mRNA; SLS-occluded skin, biopsy RNA, per subject and average, sulfate): 4.13 and 6.56 ± 0.10 and 3.06 ± 0.11 and 0.76 ± 0.13 and 5.11 ± 0.06 and 1.67 ± 0.08 and 1.06 ± 0.07 and 9.81 ± 0.26 and 9.15 ± 0.15 and 1.82 ± 0.05 and 2.29 ± 0.13
ΔCt,IL-8, Tape (IL-8 mRNA; SLS-occluded skin, tape-harvested RNA, per subject and average, > = minimum ΔCt (Ct assigned 37), sulfate): −1.28 and −0.89 and −1.28 ± 0.11 and −3.05 ± 0.15 and −0.05 ± 0.11 and −0.68 ± 0.08 and −0.44 ± 0.06 and 0.02 ± 0.17 and 0.56 ± 0.07 and >1.51 ± 0.17 and −0.36 ± 0.05 and −2.59 ± 0.07
IL-8/actin mRNA ratio of subject 4's SLS site vs average for water-occluded samples (IL-8 mRNA; tape-harvested, from ΔCt −1.28 and average ΔCt 1.54): 7.1 fold
IL-8/β-actin mRNA ratio of subject 4's SLS site vs average value for uninvolved skin (IL-8 mRNA; tape-harvested, from ΔCt −1.28 and average ΔCt >2.49): ≥ 13.6 fold
number of genes differentially expressed, SLS vs water treated [1]: 1,364 genes
ΔCt,Krt-10, Biopsy, SLS (Krt-10 mRNA): −4.28 and −0.24 and −3.09 and −6.35 and −4 and 0.4 and −2 and −2.7 and 1.91 and −5.97
ΔCt,Krt-10, Biopsy, SLS (Krt-10 mRNA; mean): −2.63
ΔCt,Krt-10, Tape, SLS (Krt-10 mRNA; tape-stripped RNA): −2.76 and 3.68 and 8.19 and −0.3 and 0.93 and 5.1 and 1.03 and 4.17 and 3.81 and −0.81
ΔCt,Krt-10, Tape, SLS (Krt-10 mRNA; tape-stripped RNA, mean): 2.30
Fold Increase Krt-10/β-actin mRNA vs. normal, Biopsy, SLS (Krt-10 mRNA; 1% SLS patch 24 hours vs untreated skin, per subject and Average): 0.15 fold and 0.01 fold (2×) and 0.06 fold (2×) and 0.65 fold and 0.1 fold and 0.03 fold and <0.001 fold and 0.57 fold
Fold Increase Krt-10/β-actin mRNA vs. normal, Biopsy, SLS (Krt-10 mRNA; 1% SLS patch 24 hours vs untreated skin, per subject and Average, mean): 0.05 fold
Fold Increase Krt-10/β-actin mRNA vs. normal, Tape, SLS (Krt-10 mRNA; 1% SLS patch 24 hours vs untreated skin, tape-stripped RNA, per subject and Average): 1.55 fold and 0.03 fold and <0.001 fold and 0.01 fold (3×) and 0.31 fold and 1.22 fold
